Results taken from paper PMC5784245, “An Optimized Synthetic-Bioinformatic Natural Product Antibiotic Sterilizes Multidrug-Resistant Acinetobacter baumannii-Infected Wounds” (mSphere, 2018).
Values after ≈ are worked out from the molar mass of the structure shown. Where two headings read alike, the source gives them in different places. Non-standard residues stand in square brackets, D forms with d. Residues, ends and D or L forms follow the SMILES beside them. *: point of attachment. Decanoyl = CCCCCCCCCC(=O)*; dOrn = NCCC[C@@H](N)C(=O)O; Orn = NCCC[C@H](N)C(=O)O

Tests used:
Bacillus subtilis = type: cell-based; details: 24 h
Procedure: (§1) Wang resins were purchased from Matrix Innovation. Reagents for peptide synthesis were purchased from P3 BioSystems, Chempep, and Chem-Impex International. The fluorescent dyes DiBAC4 and SYTOX were purchased from Thermo Fisher Scientific, and media were prepared from premixed powders: brain heart infusion for S. sobrinus and L. rhamnosus (Hardy Diagnostics), yeast extract-peptone-dextrose for C. albicans, lysogeny broth (LB) for all other bacteria (BD Biosciences), and McCoy’s 5A medium with 10% fetal bovine serum for HT-29 cells (American Type Culture Collection). All other chemicals and consumables were purchased from Sigma-Aldrich and VWR International. Paenimucillin 4F for in vivo studies was purchased from Ontores Biotechnologies as a high-performance liquid chromatography (HPLC)-purified peptide and used as is. Dye assays were performed in a Gen5 microtiter plate reader (Biotek Instruments). Liquid chromatography-mass spectrometry (LC-MS) analyses were performed by using an Acquity system (Waters Corporation).
(§2) Standard susceptibility assays were performed in LB medium in 96-well microtiter plates to determine the MIC by the broth microdilution method in accordance with protocols recommended by Clinical and Laboratory Standards Institute ([35]). Cytotoxicity was assessed using human HT-29 cells based on a similar broth microdilution method ([36]). All assays were performed in duplicate. For the cytotoxicity assay, 5,000 HT-29 cells per well were seeded into a microtiter plate and cultured for 24 h at 37°C in a 5% CO2 atmosphere. Peptides were supplemented at concentrations ranging from 128 to 0.5 μg/ml, and the cells were incubated for another 20 h. Growth media were removed, 3-(4,5-dimethylthiazol-2-yl)-2,5-diphenyltetrazolium bromide (MTT) was added to all wells (220 μl per well at 0.5 mg/ml), the mixture was incubated for 4 h, and then the media were discarded. Cell viability was determined by visual inspection.

Acinetobacter baumannii = type: cell-based
Procedure: as §1, §2

Streptococcus sobrinus = type: cell-based; details: 24 h
Procedure: as §1, §2

Staphylococcus aureus = type: cell-based; details: 24 h
Procedure: as §1, §2

Enterococcus faecium = type: cell-based
Procedure: as §1, §2

Enterococcus faecalis = type: cell-based; details: 24 h
Procedure: as §1, §2

Lactobacillus rhamnosus = type: cell-based; details: 24 h
Procedure: as §1, §2

Klebsiella pneumoniae = type: cell-based; details: 24 h
Procedure: as §1, §2

Enterobacter cloacae = type: cell-based; details: 24 h
Procedure: as §1, §2

Pseudomonas aeruginosa = type: cell-based; details: 24 h
Procedure: as §1, §2

[1] = system: MDR A. baumannii strain AB5075; test: microbe, parasite or virus in culture; type: cell-based, Acinetobacter baumannii; details: Acinetobacter baumannii; MDR strain AB5075; read-out: in vitro MIC, A. baumannii AB5075
Procedure: as §2

[2] = system: MDR A. baumannii strain AB5075; test: Rat cutaneous wound model, efficacy; type: in vivo, Sprague-Dawley rats; details: rat wound infected with AB5075 (500 CFU); topical 10 mg/ml twice daily from 0.5 h postinoculation; four wounds, ±1 SD
Procedure: The rat cutaneous wound model was used as described previously ([21]). Protocols for animal studies were approved by the Rutgers University Institutional Animal Care and Use Committee. All animals were humanely euthanized at the study endpoint by following the AVMA Guidelines for the Euthanasia of Animals. Immunocompetent Sprague-Dawley female rats (~200 g) were anesthetized by intraperitoneal injection of 100 mg/kg ketamine plus 10 mg/kg xylazine. Using a 1.0-cm-diameter disposable biopsy punch, two symmetrical wounds were created on the dorsum of each rat. A circular gauze dressing 8 mm in diameter was saturated overnight with either vehicle or 4F at 10 mg/ml in sterile centrifuge tubes. To assess tolerability, the rats were weighed daily and observed for wound healing, behavior changes, and visible adverse drug effects for 5 days. To assess efficacy, A. baumannii strain AB5075 was grown overnight and the culture was diluted to provide the challenge inoculum (500 CFU) as 50 μl of bacterial suspension in 0.9% (wt/vol) NaCl. A circular gauze dressing 8 mm in diameter was saturated overnight with vehicle, tetracycline, or 4F at 10 mg/ml in sterile centrifuge tubes. These saturated dressings were topically applied to the wound site with sterile forceps twice daily, starting at 30 min postinoculation, for 6 days. Rats were observed twice daily for morbidity and possible signs of acute toxicity. Two and four independent cutaneous wounds were tested in tolerability and efficacy assessments, respectively.

C. albicans = test: Toxicity assessment, MIC against C. albicans; type: cell-based, Candida albicans; details: Brady lab strain; yeast extract-peptone-dextrose; surrogate for cytotoxicity; duplicate
Procedure: as §1, with “Liquid chromatography-mass spectrometry (LC-MS) analyses were performed by using an Acquity system (Waters Corporation).” left out
Standard susceptibility assays were performed in LB medium in 96-well microtiter plates to determine the MIC by the broth microdilution method in accordance with protocols recommended by Clinical and Laboratory Standards Institute ([35]). Cytotoxicity was assessed using human HT-29 cells based on a similar broth microdilution method ([36]). […] Cell viability was determined by visual inspection.

[3] = system: A. baumannii clinical isolate 1790; type: cell-based, Acinetobacter baumannii; details: clinical isolate 1790, 24 h
Procedure: as §1, §2

[4] = system: A. baumannii clinical isolate 1788; type: cell-based, Acinetobacter baumannii; details: clinical isolate 1788, 24 h
Procedure: as §1, §2

[5] = system: A. baumannii clinical isolate S5; type: cell-based, Acinetobacter baumannii; details: clinical isolate S5, 24 h
Procedure: as §1, §2

[6] = system: A. baumannii clinical isolate S3; type: cell-based, Acinetobacter baumannii; details: clinical isolate S3, 24 h
Procedure: as §1, §2

[7] = system: A. baumannii clinical isolate 1791; type: cell-based, Acinetobacter baumannii; details: clinical isolate 1791, 24 h
Procedure: as §1, §2

[8] = system: A. baumannii clinical isolate 1797; type: cell-based, Acinetobacter baumannii; details: clinical isolate 1797, 24 h
Procedure: as §1, §2

[9] = system: A. baumannii clinical isolate 1795; type: cell-based, Acinetobacter baumannii; details: clinical isolate 1795, 24 h
Procedure: as §1, §2

| SMILES | MIC Bacillus subtilis (Bacillus subtilis) | MIC Streptococcus sobrinus (Streptococcus sobrinus) | MIC Staphylococcus aureus (Staphylococcus aureus) | MIC Enterococcus faecalis (Enterococcus faecalis) | MIC Lactobacillus rhamnosus (Lactobacillus rhamnosus) | MIC Klebsiella pneumoniae (Klebsiella pneumoniae) | MIC Acinetobacter baumannii (Acinetobacter baumannii; 24 h) | MIC Enterobacter cloacae (Enterobacter cloacae) | MIC Enterococcus faecium (Enterococcus faecium; 24 h) | MIC Pseudomonas aeruginosa (Pseudomonas aeruginosa) | other results |
| --- | --- | --- | --- | --- | --- | --- | --- | --- | --- | --- | --- |
| CN(C)[C@@H]1C(O)=C(C(N)=O)C(=O)[C@@]2(O)C(O)=C3C(=O)c4c(O)cccc4[C@@](C)(O)[C@H]3C[C@@H]12 [tetracycline, reference compound] |  |  |  |  |  |  |  |  |  |  | MIC [1]: 0.25 µg/mL (≈ 0.563 µM); bacterial burden of wound, day 3 [2]: 6.4 ± 0.31 log CFU |
| CC[C@@H](C)[C@@H](NC(=O)[C@@H](NC(=O)[C@H](CO)NC(=O)[C@H](Cc1c[nH]c2ccccc12)NC(=O)[C@@H](CCCN)NC(=O)[C@H](CO)NC(=O)[C@H](CO)NC(=O)[C@@H](Cc1c[nH]c2ccccc12)NC(=O)[C@@H](CO)NC(=O)[C@H](NC(=O)[C@@H](CCCN)NC(=O)[C@@H](Cc1ccccc1)NC(C)=O)[C@H](C)CC)C(C)C)C(=O)N[C@@H](CCCN)C(=O)O [4W] (Ac-[dF][dOrn][dI][dS][dW]SS[dOrn]WSV[dI][Orn]-OH) | 1 µg/mL (≈ 0.627 µM) | 2 µg/mL (≈ 1.25 µM) | 4 µg/mL (≈ 2.51 µM) | 4 µg/mL (≈ 2.51 µM) | 2 µg/mL (≈ 1.25 µM) | 2 µg/mL (≈ 1.25 µM) | 1 µg/mL (≈ 0.627 µM) | 2 µg/mL (≈ 1.25 µM) | 32 µg/mL (≈ 20.1 µM) | 16 µg/mL (≈ 10 µM) | MIC, toxicity assessment, C. albicans (C. albicans): 128 µg/mL (≈ 80.2 µM); MIC for A. baumannii clinical isolate 1790 [3]: 0.5 µg/mL; MIC for A. baumannii clinical isolate 1788 [4]: 2 µg/mL; MIC for A. baumannii clinical isolate S5 [5]: 4 µg/mL; MIC for A. baumannii clinical isolate S3 [6]: 4 µg/mL; MIC for A. baumannii clinical isolate 1791 [7]: 0.5 µg/mL; MIC for A. baumannii clinical isolate 1797 [8]: 2 µg/mL; MIC for A. baumannii clinical isolate 1795 [9]: 2 µg/mL |

Further lines, with some results ahead:

| MIC Bacillus subtilis (Bacillus subtilis) | MIC Streptococcus sobrinus (Streptococcus sobrinus) | MIC Staphylococcus aureus (Staphylococcus aureus) | MIC Enterococcus faecalis (Enterococcus faecalis) | MIC Lactobacillus rhamnosus (Lactobacillus rhamnosus) | MIC Klebsiella pneumoniae (Klebsiella pneumoniae) | MIC Acinetobacter baumannii (Acinetobacter baumannii; 24 h) | MIC Enterobacter cloacae (Enterobacter cloacae) | MIC Enterococcus faecium (Enterococcus faecium; 24 h) | MIC Pseudomonas aeruginosa (Pseudomonas aeruginosa) | SMILES | other results |
| --- | --- | --- | --- | --- | --- | --- | --- | --- | --- | --- | --- |
| 4 µg/mL (≈ 2.45 µM) | 2 µg/mL (≈ 1.23 µM) | 16 µg/mL (≈ 9.82 µM) | 32 µg/mL (≈ 19.6 µM) | 16 µg/mL (≈ 9.82 µM) |  |  |  |  |  | CCCCCCCCCC(=O)N[C@H](Cc1ccccc1)C(=O)N[C@H](CCCN)C(=O)N[C@@H](C(=O)N[C@H](CO)C(=O)N[C@H](Cc1ccccc1)C(=O)N[C@@H](CO)C(=O)N[C@@H](CO)C(=O)N[C@H](CCCN)C(=O)N[C@@H](Cc1ccccc1)C(=O)N[C@@H](CO)C(=O)N[C@H](C(=O)N[C@@H](C(=O)N[C@@H](CCCN)C(=O)O)[C@H](C)CC)C(C)C)[C@H](C)CC [1F, paenimucillin A] (Decanoyl-[dF][dOrn][dI][dS][dF]SS[dOrn]FSV[dI][Orn]-OH) | MIC Acinetobacter baumannii (Acinetobacter baumannii; strain ATCC 17978, LB medium, broth microdilution, duplicate): 16 µg/mL (≈ 9.82 µM); MIC Enterococcus faecium (Enterococcus faecium; strain Com15, LB medium, broth microdilution, duplicate): 4 µg/mL (≈ 2.45 µM) |
| 16 µg/mL (≈ 10.8 µM) | 64 µg/mL (≈ 43.4 µM) | 64 µg/mL (≈ 43.4 µM) | 32 µg/mL (≈ 21.7 µM) | 128 µg/mL (≈ 86.7 µM) | 4 µg/mL (≈ 2.71 µM) | 32 µg/mL (≈ 21.7 µM) | 8 µg/mL (≈ 5.42 µM) | 32 µg/mL (≈ 21.7 µM) | 64 µg/mL (≈ 43.4 µM) | CC[C@@H](C)[C@@H](NC(=O)[C@@H](NC(=O)[C@H](CO)NC(=O)[C@H](Cc1ccccc1)NC(=O)[C@@H](CCCN)NC(=O)[C@H](CO)NC(=O)[C@H](CO)NC(=O)[C@@H](Cc1ccccc1)NC(=O)[C@@H](CO)NC(=O)[C@H](NC(=O)[C@@H](CCCN)NC(=O)[C@H](N)Cc1ccccc1)[C@H](C)CC)C(C)C)C(=O)N[C@@H](CCCN)C(=O)O [5F] (H-[dF][dOrn][dI][dS][dF]SS[dOrn]FSV[dI][Orn]-OH) |  |
| 16 µg/mL (≈ 9.37 µM) | 1 µg/mL (≈ 0.585 µM) | 64 µg/mL (≈ 37.5 µM) | 128 µg/mL (≈ 74.9 µM) | 2 µg/mL (≈ 1.17 µM) |  | 128 µg/mL (≈ 74.9 µM) |  | 4 µg/mL (≈ 2.34 µM) |  | CCCCCCCCCC(=O)N[C@H](Cc1ccccc1)C(=O)N[C@H](CCCN)C(=O)N[C@@H](C(=O)N[C@H](CO)C(=O)N[C@H](Cc1c[nH]c2ccccc12)C(=O)N[C@@H](CO)C(=O)N[C@@H](CO)C(=O)N[C@H](CCCN)C(=O)N[C@@H](Cc1c[nH]c2ccccc12)C(=O)N[C@@H](CO)C(=O)N[C@H](C(=O)N[C@@H](C(=O)N[C@@H](CCCN)C(=O)O)[C@H](C)CC)C(C)C)[C@H](C)CC [1W, paenimucillin B] (Decanoyl-[dF][dOrn][dI][dS][dW]SS[dOrn]WSV[dI][Orn]-OH) |  |
| 2 µg/mL (≈ 1.29 µM) | 4 µg/mL (≈ 2.57 µM) | 8 µg/mL (≈ 5.15 µM) | 4 µg/mL (≈ 2.57 µM) | 4 µg/mL (≈ 2.57 µM) | 4 µg/mL (≈ 2.57 µM) | 4 µg/mL (≈ 2.57 µM) | 4 µg/mL (≈ 2.57 µM) | 8 µg/mL (≈ 5.15 µM) | 16 µg/mL (≈ 10.3 µM) | CC[C@@H](C)[C@@H](NC(=O)[C@@H](NC(=O)[C@H](CO)NC(=O)[C@H](Cc1c[nH]c2ccccc12)NC(=O)[C@@H](CCCN)NC(=O)[C@H](CO)NC(=O)[C@H](CO)NC(=O)[C@@H](Cc1c[nH]c2ccccc12)NC(=O)[C@@H](CO)NC(=O)[C@H](NC(=O)[C@@H](CCCN)NC(=O)[C@H](N)Cc1ccccc1)[C@H](C)CC)C(C)C)C(=O)N[C@@H](CCCN)C(=O)O [5W] (H-[dF][dOrn][dI][dS][dW]SS[dOrn]WSV[dI][Orn]-OH) |  |
